From US20120258980A1, “Antibacterial Agent for Drug-Resistant Bacteria, Method for Screening for Same, and Use of Same” (priority 2009, published 2012)
Like-named read-outs stand apart in the source and are kept apart here.

Tests used:
[1] = tested on: VISA clinical isolates of MRSA (VI-MRSA) and of MSSA (VI-MSSA); experiment: microbe, parasite or virus in culture; type: cell-based, Staphylococcus aureus
Outline: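 Strains were grown overnight at 37° C in TSB, adjusted in CAMHB to 0.3 absorbance at 578 nm and diluted 500-fold before equal-volume addition to compound dilutions.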

VRSA clinical isolates = conditions: based on NARSA, cited from earlier work
[2] = Staphylococcus aureus, 99/3700-W, VI-MRSA, The United Kingdom
[3] = Staphylococcus aureus, 99/3759-V, VI-MRSA, The United Kingdom
[4] = Staphylococcus aureus, 28160, VI-MRSA, South African Republic
[5] = Staphylococcus aureus, 98141, VI-MRSA, France
[6] = Staphylococcus aureus, A7 (JCSC4842), VI-MRSA, Taiwan
[7] = Staphylococcus aureus, AMC11094, VI-MRSA, Korea
[8] = Staphylococcus aureus, B7 (JCSC4852), VI-MRSA, Taiwan
[9] = Staphylococcus aureus, BR1, VI-MRSA, Brazil
[10] = Staphylococcus aureus, BR2, VI-MRSA, Brazil
[11] = Staphylococcus aureus, BR3, VI-MRSA, Brazil
[12] = Staphylococcus aureus, BR4, VI-MRSA, Brazil
[13] = Staphylococcus aureus, BR5, VI-MRSA, Brazil
[14] = Staphylococcus aureus, HIP06297, VI-MRSA, America
[15] = Staphylococcus aureus, HIP06854, VI-MRSA, America
[16] = Staphylococcus aureus, HIP07920, VI-MRSA, America
[17] = Staphylococcus aureus, HIP07930, VI-MRSA, America
[18] = Staphylococcus aureus, HIP08926, VI-MRSA, America
[19] = Staphylococcus aureus, HIP09143, VI-MRSA, America
[20] = Staphylococcus aureus, HIP09313, VI-MRSA, America
[21] = Staphylococcus aureus, HIP09433, VI-MRSA, America
[22] = Staphylococcus aureus, HIP09662, VI-MRSA, America
[23] = Staphylococcus aureus, HIP09735, VI-MRSA, America
[24] = Staphylococcus aureus, HIP09737, VI-MSSA, America
[25] = Staphylococcus aureus, HIP09740, VI-MRSA, America
[26] = Staphylococcus aureus, HIP10267, VI-MRSA, America
[27] = Staphylococcus aureus, HIP10540, VI-MRSA, America
[28] = Staphylococcus aureus, HIP12864, VI-MRSA, America
[29] = Staphylococcus aureus, HIP13036, VI-MRSA, America
[30] = Staphylococcus aureus, HIP13057, VI-MRSA, America
[31] = Staphylococcus aureus, IL (HIP7737), VI-MRSA, America
[32] = Staphylococcus aureus, JCSC7193, VI-MRSA, Thailand
[33] = Staphylococcus aureus, JCSC7195, VI-MRSA, Thailand
[34] = Staphylococcus aureus, JCSC7203, VI-MRSA, Thailand
[35] = Staphylococcus aureus, LIM2, VI-MRSA, France
[36] = Staphylococcus aureus, LY-1999-01, VI-MSSA, Oman
[37] = Staphylococcus aureus, LY-1999-03, VI-MRSA, Oman
[38] = Staphylococcus aureus, MI (HIP5827), VI-MRSA, America
[39] = Staphylococcus aureus, MRSA / MSSA / NRS 76 / VISA, NRS76, VI-MSSA, America
[40] = Staphylococcus aureus, MRSA / MSSA / NRS 79 / VISA, NRS79, VI-MRSA, America
[41] = Staphylococcus aureus, MRSA / MSSA / NRS 118 / VISA, NRS118, VI-MRSA, America
[42] = Staphylococcus aureus, MRSA / MSSA / NRS 126 / VISA, NRS126, VI-MRSA, America
[43] = Staphylococcus aureus, Mu3, VI-MRSA, Japan
[44] = Staphylococcus aureus, Mu50, VI-MRSA, Japan
[45] = Staphylococcus aureus, NJ (HIP5836), VI-MRSA, America
[46] = Staphylococcus aureus, P1V44, VI-MSSA, Belgium
[47] = Staphylococcus aureus, PC, VI-MRSA, America
[48] = Staphylococcus aureus, SA MER-S6, VI-MSSA, France
[49] = Staphylococcus aureus, SA MER-S12, VI-MSSA, France
[50] = Staphylococcus aureus, SA MER-S20, VI-MSSA, France

Measured: MIC

Cc1onc(-c2ccccc2)c1C(=O)N[C@@H]1C(=O)N2[C@@H]1SC(C)(C)[C@@H]2C(=O)O [OXA, oxacillin]
2 µg/mL: [1]; [46]
> 128 µg/mL: [1]; [5] | [1]; [32] | [1]; [33]
256 µg/mL: [1]; [9] | [1]; [21] | [1]; [40] | [1]; [42]
32 µg/mL: [1]; [4] | [1]; [17] | [1]; [29] | [1]; [35]
>16 mg/L: VRSA clinical isolates; VRS1, VRSA, Michigan | VRSA clinical isolates; VRS2, VRSA, Pennsylvania | VRSA clinical isolates; VRS3, VRSA, New York | VRSA clinical isolates; VRS4, VRSA, New York | VRSA clinical isolates; VRS5, VRSA, Michigan | VRSA clinical isolates; VRS6, VRSA, Michigan
8 mg/L: VRSA clinical isolates; VRS7, VRSA, Michigan
1 µg/mL: [1]; [24] | [1]; [36] | [1]; [39] | [1]; [48] | [1]; [49] | [1]; [50]
128 µg/mL: [1]; [6] | [1]; [8] | [1]; [15] | [1]; [16] | [1]; [34]
64 µg/mL: [1]; [10] | [1]; [11] | [1]; [27] | [1]; [31] | [1]; [45]
4 µg/mL: [1]; [26] | [1]; [30] | [1]; [47]
512 µg/mL: [1]; [2] | [1]; [3] | [1]; [7] | [1]; [12] | [1]; [13] | [1]; [14] | [1]; [18] | [1]; [19] | [1]; [20] | [1]; [22] | [1]; [23] | [1]; [25] | [1]; [38] | [1]; [43] | [1]; [44]
1020 µg/mL: [1]; [28] | [1]; [37] | [1]; [41]

CN[C@H](CC(C)C)C(=O)N[C@H]1C(=O)N[C@@H](CC(N)=O)C(=O)N[C@H]2C(=O)N[C@H]3C(=O)N[C@H](C(=O)N[C@H](C(=O)O)c4cc(O)cc(O)c4-c4cc3ccc4O)[C@H](O)c3ccc(c(Cl)c3)Oc3cc2cc(c3O[C@@H]2O[C@H](CO)[C@@H](O)[C@H](O)[C@H]2O[C@H]2C[C@](C)(N)[C@H](O)[C@H](C)O2)Oc2ccc(cc2Cl)[C@H]1O [VCM, vancomycin]
>256 mg/L: VRSA clinical isolates; VRS1, VRSA, Michigan | VRSA clinical isolates; VRS5, VRSA, Michigan | VRSA clinical isolates; VRS6, VRSA, Michigan | VRSA clinical isolates; VRS7, VRSA, Michigan
64 mg/L: VRSA clinical isolates; VRS2, VRSA, Pennsylvania
2 µg/mL: [1]; [2] | [1]; [3] | [1]; [5] | [1]; [9] | [1]; [16] | [1]; [21] | [1]; [34] | [1]; [35] | [1]; [39] | [1]; [40] | [1]; [46]
>32 mg/L: VRSA clinical isolates; VRS3, VRSA, New York | VRSA clinical isolates; VRS4, VRSA, New York
4 µg/mL: [1]; [4] | [1]; [7] | [1]; [8] | [1]; [10] | [1]; [14] | [1]; [15] | [1]; [17] | [1]; [18] | [1]; [19] | [1]; [20] | [1]; [22] | [1]; [23] | [1]; [24] | [1]; [26] | [1]; [27] | [1]; [28] | [1]; [30] | [1]; [31] | [1]; [32] | [1]; [36] | [1]; [37] | [1]; [42] | [1]; [48] | [1]; [49] | [1]; [50]
0.5 µg/mL: [1]; [43]
1 µg/mL: [1]; [25] | [1]; [33]
8 µg/mL: [1]; [11] | [1]; [12] | [1]; [13] | [1]; [29] | [1]; [38] | [1]; [41] | [1]; [44] | [1]; [45] | [1]; [47]
3 µg/mL: [1]; [6]

C[C@@H]1CN(c2c(F)c(N)c3c(=O)c(C(=O)O)cn(C4CC4)c3c2F)C[C@H](C)N1 [SPFX, sparfloxacin]
2 µg/mL: [1]; [36]
8 µg/mL: [1]; [6] | [1]; [8] | [1]; [14] | [1]; [20] | [1]; [30] | [1]; [37] | [1]; [42]
64 µg/mL: [1]; [21]
0.125 µg/mL: [1]; [50]
16 µg/mL: [1]; [2] | [1]; [3] | [1]; [5] | [1]; [12] | [1]; [13] | [1]; [15] | [1]; [16] | [1]; [17] | [1]; [18] | [1]; [19] | [1]; [22] | [1]; [23] | [1]; [24] | [1]; [25] | [1]; [26] | [1]; [27] | [1]; [32] | [1]; [34] | [1]; [35] | [1]; [40] | [1]; [43] | [1]; [44] | [1]; [47]
0.25 µg/mL: [1]; [48] | [1]; [49]
32 µg/mL: [1]; [4] | [1]; [7] | [1]; [9] | [1]; [10] | [1]; [11] | [1]; [28] | [1]; [31] | [1]; [33] | [1]; [38] | [1]; [39] | [1]; [41] | [1]; [45]
4 µg/mL: [1]; [29] | [1]; [46]
